The IC50 is the point on the concentration scale where inhibition reaches its midpoint.

The subject of data set [1] is U87 glioma cells. Description: U87 proliferation and survival, tetrazolium (WST) live cell assay and manual cell counts. Format: cell-based, human. The note with it: for activity at 250 µM: Homo sapiens, U-87 MG, 48 h treatment, read-out: cell numbers as % of control at 48 h (WST assay). Here is the method: Proliferation of U87 glioma cells was inhibited by AmC(5)-GlyOBn at 24 h. […] Manual cell counts, coupled with the trypan blue exclusion assay, determined the number of viable cells at 24 h and 48 h. Three separate experiments (n=6/exp) with S.D. as shown, *significance at P<0.01. Removal of AmC(5)-GlyOBn at 24 h caused cell numbers to increase by 48 h, as compared with U87 glioma cell numbers that continued to be treated with the drug for 48 h (Table 1).
Total live cell numbers per well were determined using a tetrazolium assay (WST).
WST […] that can be reduced in attached and detached live cells to formazon that is detected spectrophotometrically. Formazon formation has been determined to be proportional to glioma cell number for U87MG, U251, U373, and primary astrocytes. Absorbances are measured at 570 nm using a microtiter plate reader. Mean background absorbances of cell-free media (630 nm) are subtracted from these values. […] Identical concentrations of glioma cells are grown until 50% confluent on 60 mm plates. Following drug treatments, floating cells in media are collected and combined with adherent cells that were harvested following 0.25% v/v trypsin for 5 minutes (37° C.). The combined fractions are centrifuged at 350×g for 5 min. The resultant cell pellet is resuspended in equal volumes of PBS-CMF with 0.4% trypan blue.

Data set [2] has as its target T1, bovine pancreatic trypsin (Bos taurus, UniProt P00760).
T1 construct: purchased Calbiochem; host or cells: bovine pancreas
T1 sequence (P00760 24-246): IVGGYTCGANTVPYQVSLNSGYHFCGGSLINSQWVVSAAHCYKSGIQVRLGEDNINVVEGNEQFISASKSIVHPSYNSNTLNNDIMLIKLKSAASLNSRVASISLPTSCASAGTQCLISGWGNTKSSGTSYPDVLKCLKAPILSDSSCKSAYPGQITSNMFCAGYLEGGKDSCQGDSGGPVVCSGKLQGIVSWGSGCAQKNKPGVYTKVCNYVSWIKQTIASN
Description: LCMS trypsin digest (negative control enzyme). It is filed as biochemical. The following applies: LCMS after incubation with enzyme. The procedure: (§1) Compound 3b is a C5am-Gly-peptide conjugate containing two D-amino acids, and compound 3c is a C5 am-Gly-peptide conjugate coupled to a peptide to generate an analog of opioid peptides that cross the blood brain barrier (BBB). The resultant conjugates (compounds 3a-c) were tested for selective cleavage by the brain peptidase enkephalinase (neutral endopeptidase 24.11; Calbiochem) via incubation for 24 h in the presence or absence of the enzyme, and aliquots from the reaction solutions were then analyzed by LCMS to identify the C5am-Gly conjugate (compound 3a), starting material, and enzymatic cleavage products (see, Scheme 3). As negative control experiments, the conjugates were analyzed following treatment with (1) bovine pancreatic trypsin (Calbiochem) or (2) the buffer solutions without enzymes.

The subject of data set [3] is U87 glioma cells. As to the kind of experiment: U87 cell death, manual cell counts with trypan blue exclusion. The note with it: for % cell death, trypan blue: 250 microM, 48 h treatment. Format: cell-based, human.
A short description of data set [4]: Incubation in buffer solutions without enzymes. Format: physicochemical. Here is the method: as §1
The test system of data set [5] is U87 glioma cells. As to the kind of experiment: U87 glioma cell adherence to extracellular matrix (ECM). It is filed as cell-based, human. The note with it: for activity at 250 µM: Homo sapiens, U-87 MG, U87 cells on ECM, 4 h, read-out: % of control attachment at 4 h. The procedure: As shown in FIGS. 4A and B and, U87 glioma cells in logarithmic growth were trypsinized and washed ×1 with PBS. 4×10^5 cells were plated on to each ECM-coated well that was treated as indicated. Cells were monitored for adherence to the ECM. The numbers of attached cells in each well were manually counted using interference microscopy after 4 hours when adherence was complete. Experiments were performed in triplicate for each treatment and data expressed as mean+S.D. **statistically signif at P<0.001. Glioma cell morphology 4 h after plating as visualized by phase contrast microscopy.
To study adherence, wells in 24-well plates are coated with 200 ul of PBS (CMF Dulbecco's) containing one of the following ECM substrates: {i} […] {ii} vitronectin {iii} fibronectin {iv} lamininin-5. Plates are incubated 1 h at 37° C. then wells are washed once with prewarmed serum-free DMEM and the drug added to each well. Each treatment group, consisting of pretreated glioma cells (3×10^3 cells/well) is plated into 6 wells, and adhesion is evaluated at 60 min intervals over a 6-18 hour period, depending of the cell line. Unbound cells are gently dislodged with Dulbecco's PBS, while counting adherent cells in 10 random fields per each well under 10× magnification using an inverted microscope with interference phase optics and an ocular grid (21 mm^2). During the same time intervals, the percent value of spread cells with respect to adherent cells is evaluated.

A further data set concerns glioma cells. Description: Glioma cell volume in vitro and in intracerebral xenografts (7 tesla NMR). Format: cell-based.
A further data set deals with T2, NHE1 (Homo sapiens, UniProt P19634).
T2 construct: endogenous in cells; host or cells: glioma cell lines (U87)
Description: Sodium-proton exchange (NHE1) inhibition in glioma cells (BCECF fluorometry). Format: cell-based. Here is the method: Sodium-proton type 1 (NHE1) and sodium-calcium transport (NCX) measurements in glioma cells. Inhibition of NHE in glioma cell lines using BCECF and quantitative fluorometry are routinely measured (McLean, L. A., et al., Malignant gliomas display altered pH regulation by NHE1 compared with nontransformed astrocytes. Am J Physiol Cell Physiol, 2000. 278(4): p. C676-88). IC50 of NCX transport bidirectionally is measured using whole cell patch clamping bidirectional NCX inhibition using a HEK-293 cell line transfected with NCX 1.1 obtained from J. Lytton (Dong, H., J. Dunn, and J. Lytton, Stoichiometry of the Cardiac Na+/Ca2+ exchanger NCX1.1 measured in transfected HEK cells. Biophys J, 2002. 82(4): p. 1943-52).

The test system of data set [6] is U87 glioma cells. As to the kind of experiment: Cell permeation by fluorescent microscopy of U87 glioma cells. It is filed as cell-based. The following applies: 50 μM, 90-180 min incubation. The procedure:
27). The fluorescent extinction coefficient of each compound is determined using a spectrofluorometer and permits semi-quantitative estimations of intracellular drug accumulation.
U87 glioma cells were incubated with 50 uM of each compound for 180 min followed by washing the cells ×2 with PBS.

The target in the next data set is T3, uPA (Homo sapiens, UniProt P00749).
T3 construct: uPA, tPA, and MMP-2 and MMP-9 enzymatic activities secreted by and contained within glioma cell lines; endogenous in cells; host or cells: U87 and other human glioma cell lines (homogenates, conditioned media)
Description: uPA enzymatic inhibition with peptide-specific fluorogenic substrates. Format: biochemical. The procedure:
uPA, tPA, and MMP-2 and MMP-9 enzymatic activities secreted by and contained within glioma cell lines, normal astrocyte cultures, primary rat brain, and intracranial glioma xenograft homogenates are measured using commercial peptide analog substrates, that become fluorescent when enzymatically cleaved. Recombinant tPA was obtained from ASSAYPRO, CT1001.

Data set [7] concerns intracerebral human U87 glioma xenografts. Description: Intracerebral U87 glioma xenograft growth (NMR, stereology). Format: in vivo, athymic rats.
Description: The volume of U87 glioma xenografts were measured at different postimplantation times using the small animal 7 tesla NMR facility on UC Davis campus.
Determining tumor doubling time (hrs) in U87 xenografts were measured using small animal NMR.
Pretreatment of athymic rats with intracranial AmC(5)Gly-OBn for 3 days prior to implantation achieved steady-state brain levels as measured by HPLC-fluorometry. Following glioma cell implantation, once daily intracranial administration was continued for 10 days.
Rats (250-280 gm) are intubated with 4% isoflurane and air:O2 (2:1), maintained on 2% isoflurane, and placed into a Kopf stereotactic apparatus. Glioma cells at are harvested at 80% confluence, trypsinized, and then washed three times in sterile, isotonic phosphate buffered saline. Cells are counted in a hemocytometer and diluted to a final concentration of 1×10^4 cells per microL. 5 microL of glioma cells (5×10^4) are stereotaxically injected into a 0.5 mm pocket made by a 23 gauge needle in the left anterior corpus striatum (−1 mm bregma, +4 mm left lateral, −5.0 mm depth) under sterile conditions in a laminar flow hood.
Prior to imaging the rats are administered 0.5 cc of OMNISCAN gadodiamide intraperitoneally (NYCOMED). […] A gradient recalled echo sequence is obtained which furnished a single slice in sagittal, coronal, and transverse orientations (‘triplot’) and which served as a scout image to ensure proper positioning of the animal. Spectroscopic images are obtained with a 7 Tesla (300 MHz) BRUKER BIOSPEC 70/20 system with a 210 mm horizontal bore equipped with B-GA12 shim coils driven by BRUKER Shim Power Supply with a maximum of 2A of current for each shim. S116 birdcage design resonator coil (maximum current: 100 A and maximum voltage: 150V) of 72 mm maximum sample diameter with gradient strength of 200 mT/mm was used for both. T1-weighted images (TR/TE=500/20 msec) are obtained using the standard spin echo sequence in the transverse, sagittal as well as in the coronal direction. […] Multiple contiguous slices separated by 1 mm are collected using 3 sinc pulses each of 2 msec duration, and which cover the entire tumor in one scan. The average scan time is approx 60 sec for the entire T1-weighted protocol.
Cavalieri's method estimates the volume of a structure (in our case, glial tumor) by measuring the area of the structure in a number of evenly spaced “two-dimensional” sections. In our in vivo tumor model, the procedure involves a systematically random collection of 10 sections evenly spaced through the entire tumor. To perform this, the brain is cut into 40 micron coronal sections and every section is collected to encompass the entire tumor. When the anterior most portion of the tumor becomes visible in the series of sections, a die is thrown to determine if the first, second, third, fourth, or fifth section from that point should be the initial section saved for staining and area analysis. Henceforth, every tenth section is stained and tumor area measured. This ensures that each section through the tumor has an equal probability of being analyzed. Tumor area is estimated with suitable precision by applying to each section a point grid with a known area associated with each point (a/p). Tumor volume (V) is then calculated using the formula: V=(T)·(a/p) delta Pi; where T=distance between sections, P=points landing on the tumor on the ith section.
Data set [8] can be described thus: Neuropathology and behaviour with intracranial administration. It is filed as in vivo. An excerpt:
[…]. For amiloride, parasaggital sections were stained with hematoxylin and eosin in addition to using specialized stains for neuronal damage (FluoroJade) and for myelinated fiber tracts (luxol fast blue). […].
. Each experimental and control group described below consist of a minimum of 10 animals per group. Experimental Design. The in vivo toxicity studies initially employ single, daily intracranial infusions of the candidate compound into a group of Sprague-Dawley rats for 13 days. Treated S-D animals are compared to a group of 10 control animals receiving intracranial drug vehicle injections. The infused drug concentration is based upon the cell line studies and adjusted for the low protein content of the cerebrospinal fluid which is 0.2% that of serum. Animals are behaviorally assessed for toxicity. […]. General Health and Behavioral Studies. Body weights and behavioral parameters are assessed daily in drug-treated and vehicle-treated rats during 12 day treatment paradigms. Currently, standardized behavior tests are used, which include quantitative measures of vestibulomotor function, fine motor coordination, ambulation, and spatial memory. A daily neurotoxicity behavioral sign checklist (72) to detect neurological signs of toxicity and seizures is also performed. Acquisition of spatial memory is particularly sensitive for detecting subtle drug toxicities (Preliminary Results). Body weight is used as a measure of general health. Neuropathological Studies: Cytological studies are performed in the same drug-treated and vehicle-treated rats at the conclusion of behavioral testing. Fixation and sectioning techniques are described in the Experimental Methods section. Hematoxylin and eosin are used routinely to survey for neuropathological changes. Luxol fast blue stains myelin tracts to evaluate potential white matter changes. […] Assessment of brainstem white matter tracts with luxol fast blue staining includes the spinocerebellar, vestibulospinal, corticospinal, spinothalamic. Specialized stains for reactive astrocytes, neuronal chromatolysis, etc. are added if brain lesions are detected. […]. Potential Problems and Alternatives. […]. […] These behavioral studies indicate the need to behaviorally assess treatment of the glioma tumor models.

The conditions of data set [9]: in vivo; cited from earlier work.

Entries after “also recorded” stand apart in the source; their conditions may differ. Like-named read-outs stand apart in the source and are kept apart here. *1 amine or outer side, *2 acyl side, *3 side chain or, on linkers, in order; H or OH if unused. Where a SMILES comes first, the peptide text is derived from it. [ ]: non-standard residue; d: D form. X1 = N=C(N)NC(=O)c1nc(Cl)c(N(CC(=O)[*:2])[*:1])nc1N

T2 sequence (P19634 whole entry): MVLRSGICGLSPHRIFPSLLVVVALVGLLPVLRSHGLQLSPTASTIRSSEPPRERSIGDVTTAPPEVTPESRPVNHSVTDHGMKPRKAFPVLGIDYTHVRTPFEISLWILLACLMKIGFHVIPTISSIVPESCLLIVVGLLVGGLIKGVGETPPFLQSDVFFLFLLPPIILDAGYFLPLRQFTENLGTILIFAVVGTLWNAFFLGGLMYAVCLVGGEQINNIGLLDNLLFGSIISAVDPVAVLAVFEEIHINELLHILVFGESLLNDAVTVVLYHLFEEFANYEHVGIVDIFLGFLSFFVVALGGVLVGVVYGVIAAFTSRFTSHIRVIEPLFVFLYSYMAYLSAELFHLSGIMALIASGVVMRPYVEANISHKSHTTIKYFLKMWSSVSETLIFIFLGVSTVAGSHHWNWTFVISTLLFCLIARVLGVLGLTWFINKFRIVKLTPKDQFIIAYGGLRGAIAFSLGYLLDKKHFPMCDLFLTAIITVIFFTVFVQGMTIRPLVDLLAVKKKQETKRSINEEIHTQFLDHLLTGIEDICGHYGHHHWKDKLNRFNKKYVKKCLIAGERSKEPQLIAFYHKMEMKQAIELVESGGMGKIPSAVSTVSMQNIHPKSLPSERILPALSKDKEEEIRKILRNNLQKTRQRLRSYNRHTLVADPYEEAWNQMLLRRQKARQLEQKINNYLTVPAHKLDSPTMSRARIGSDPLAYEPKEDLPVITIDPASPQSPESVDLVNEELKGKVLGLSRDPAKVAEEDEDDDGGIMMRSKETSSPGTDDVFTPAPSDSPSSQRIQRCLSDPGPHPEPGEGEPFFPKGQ

As for `N=C(N)NC(=O)c1nc(Cl)c(NCC(=O)O)nc1N` [AmC(5)Gly, amilorideC(5)-glycine-OH], the “glioma cell proliferation (in words)” value in the data set with U87 glioma cells [1] is “does not affect”. The activity at 250 µM was determined as 93% in the data set on U87 glioma cells [1] and 85 ± 15% in the data set on U87 glioma cells [5]. Moreover, the “cleavage by trypsin (in words)” value in data set [2] is given as “unaffected”. The “% cell death, trypan blue” value with U87 glioma cells [3] is “(5) %”. In addition, in the data set on U87 glioma cells [3] (48 h), the “glioma cell death / viability (in words)” value is “does not affect”. In data set [4], the “stability in control (buffer) digestion (in words)” value is reported as “unaffected”. Besides, the “glioma cell adherence to ECM (in words)” value in the data set on U87 glioma cells [5] is given as “does not affect”. Besides, the “glioma cell volume (in words)” value with glioma cells was “shrink glioma cell volumes”; in the data set on glioma cells (listed as AmC(5)Gly-OH), “does reduce glioma cell volume”. Moreover, the “inhibition of NHE1 (in words)” value is “reversible and micromolar inhibitor” on NHE1; “micromolar range” against NHE1 (listed as AmC(5)Gly-OH); “reversibly and comparably inhibit” against NHE1 (listed as AmC(5)GlyOH); “rapidly reversed” on NHE1 (listed as C5am-Gly). Besides, on NHE1 (glioma cells), the IC50 was in the range of 10 to 100 nM. In addition, the “potency of NHE1 inhibition relative to amiloride” value on NHE1 (glioma cells) is on record as 100-1000 times. Moreover, the “cell permeation (in words)” value was “does not permeate glioma cells” in the data set with U87 glioma cells [6], “does not permeate cells” with U87 glioma cells [6] (listed as AmC(5)Gly-OH) and “does not” in the data set on U87 glioma cells [6] (listed as AmC(5)GlyOH). The “inhibition of uPA (in words)” value against uPA is “reversible and micromolar inhibitor”; on uPA (listed as AmC(5)-Gly-OH), “selectively inhibit”; at uPA (listed as AmC(5)Gly-OH) it was “micromolar range”; at uPA (listed as AmC(5)GlyOH) it was “reversibly and comparably inhibit”.

Turning to `CC(C)C[C@H](NC(=O)[C@H](Cc1ccccc1)NC(=O)CNC(=O)CNC(=O)CNC(=O)CNc1nc(N)c(C(=O)NC(=N)N)nc1Cl)C(=O)O` [Compound 3c, C5am-Gly-Gly-Gly-Gly-Phe-Leu-OH] (H-[X1]GGGFL-OH), the “cleavage by trypsin (in words)” value in data set [2] is on record as “did not generate C5am-Gly”.

For `CC(C)C[C@@H](NC(=O)[C@H](Cc1ccccc1)NC(=O)CNC(=O)[C@@H](C)NC(=O)CNc1nc(N)c(C(=O)NC(=N)N)nc1Cl)C(=O)O` [Compound 3b, C5am-Gly-D-Ala-Gly-Phe-D-Leu-OH] (H-[X1][dA]GF[dL]-OH), the “cleavage by trypsin (in words)” value in [2] is reported as “not cleaved”. The “stability in control (buffer) digestion (in words)” value in data set [4] is recorded as “not cleaved”.

As to `NC(N)=NC(=O)c1nc(Cl)c(N)nc1N` [Amiloride, 3,5-diamino-6-chloro-N-(diaminomethylene)pyrazinecarboxamide], the values for the activity at 250 µM in the data set with U87 glioma cells [1] and in the data set on U87 glioma cells [5] were 31% and 58 ± 12%, respectively. For the same molecule, the Doubling time in [7] (10 mM amiloride reservoir (Alzet pump, infused days 12-17), day 10 post implant) turned out to be 3.07 h; in data set [7] (10 mM amiloride reservoir, day 12 post implant) it was 3.4 h; in data set [7] (10 mM amiloride reservoir, day 15 post implant), 3.99 h; in [7] (10 mM amiloride reservoir, day 17 post implant), 4.44 h; in data set [7] (100 mM amiloride reservoir, 276 pmol/24 h (infused days 12-17), day 10 post implant), 1.23 h; in data set [7] (100 mM amiloride reservoir, 276 pmol/24 h, day 12 post implant), 1.98 h. The Doubling time was 4.58 h in [7] (100 mM amiloride reservoir, 276 pmol/24 h, day 15 post implant) and 11.65^++ hrs in data set [7] (100 mM amiloride reservoir, 276 pmol/24 h, day 17 post implant). Besides, the “xenograft tumor growth (in words)” value in data set [7] (intracranial administration) is listed as “significantly slowed the growth rate”. Moreover, the “% cell death, trypan blue” value in the data set with U87 glioma cells [3] was “(57) %”. For the same molecule, the “behavioral side effects and seizures (in words)” value in data set [8] (efficacious intracranial administration) was “observed”. The “neuropathological changes in normal brain cell types (in words)” value in data set [8] (intracranial administration, 10-14 days) was “Neither compound produces neuropathological changes; also recorded: Neuropathological changes were not observed”. Also, the “animals with intermittent seizures” value in data set [8] (intrathecal amiloride infusion, S-D male rats) is 3 of 8. For the same molecule, the “spatial memory (in words)” value in data set [8] (intrathecal infusion) is “modestly affect spatial memory; also recorded: problems with spatial memory that persisted throughout the nine day infusion period”. Further, in data set [8] (rat, in vivo), the “premature deaths (in words)” value is given as “no premature deaths”. Further, the “motor performance (in words)” value in data set [8] (rats with intracerebral glioma xenografts, infusion) is given as “did not alter motor performance”. For the same molecule, the “cell permeation (in words)” value in the data set with U87 glioma cells [6] is on record as “rapidly permeate cells”.

Turning to `NC(=NCc1ccc(Cl)cc1Cl)NC(=O)c1nc(Cl)c(N)nc1N` [DCB, 2,4-dichlorobenzamil], the “toxicity (in words)” value in [9] was “highly toxic and causes lethality when administered”.
